Reference: patent US9255094B2, “Pyrido[4,3-B]indoles and methods of use” (Medivation Technologies, Inc., priority 2009, dated 2016)

Legend:
[1] = molecular target: T1, human recombinant serotonin (5-Hydroxytryptamine) 5-HT2A receptor (Homo sapiens, UniProt P28223); experiment: Serotonin 5-HT2A radioligand binding assay ([3H]Ketanserin); settings: 0.5 nM [3H]Ketanserin, CHO-K1 cells; for inhibition at 1 µM: compound at 1 μM, read-out: Percent Inhibition of ligand binding, Serotonin (1 μM) 5-HT2A; for inhibition at 0.1 µM: compound at 0.1 μM, read-out: Percent Inhibition of ligand binding, Serotonin (0.1 μM) 5-HT2A
T1 construct: expressed in transfected cells; host or cells: Chinese hamster ovary (CHO-K1) cells
T1 sequence (P28223 whole entry): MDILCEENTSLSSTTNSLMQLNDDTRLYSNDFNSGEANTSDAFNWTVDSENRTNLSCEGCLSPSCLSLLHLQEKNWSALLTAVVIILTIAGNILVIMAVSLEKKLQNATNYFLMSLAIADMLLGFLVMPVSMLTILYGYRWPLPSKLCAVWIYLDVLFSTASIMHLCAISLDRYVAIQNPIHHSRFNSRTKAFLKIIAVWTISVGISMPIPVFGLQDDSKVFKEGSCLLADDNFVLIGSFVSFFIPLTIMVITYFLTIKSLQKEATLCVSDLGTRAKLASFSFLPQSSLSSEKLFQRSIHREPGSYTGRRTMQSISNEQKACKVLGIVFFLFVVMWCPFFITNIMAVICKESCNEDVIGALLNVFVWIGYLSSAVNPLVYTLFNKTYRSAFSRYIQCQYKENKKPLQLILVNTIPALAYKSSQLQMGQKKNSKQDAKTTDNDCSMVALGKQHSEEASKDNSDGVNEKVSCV
Protocol: (§1) Compounds of the invention were incubated with 0.5 nM [^3H]Ketanserin for 60 min at 25° C. Non-specific binding was estimated in the presence of 1 μM Mianserin. Receptor proteins were filtered and washed, the filters were then counted to determine [^3H]Ketanserin specifically bound. Compounds were screened at 1 μM or lower, using 1% DMSO as vehicle. Biochemical assay results are presented as the percent inhibition of specific binding in Table 4.

[2] = molecular target: T2, human recombinant serotonin (5-Hydroxytryptamine) 5-HT6 receptor (Homo sapiens, UniProt P50406); experiment: Serotonin 5-HT6 radioligand binding assay ([3H]LSD); settings: compound at 0.1 μM, HeLa cells, read-out: Percent Inhibition of ligand binding, Serotonin (0.1 μM) 5-HT6
T2 construct: expressed in transfected cells; host or cells: human HeLa cells
T2 sequence (P50406 whole entry): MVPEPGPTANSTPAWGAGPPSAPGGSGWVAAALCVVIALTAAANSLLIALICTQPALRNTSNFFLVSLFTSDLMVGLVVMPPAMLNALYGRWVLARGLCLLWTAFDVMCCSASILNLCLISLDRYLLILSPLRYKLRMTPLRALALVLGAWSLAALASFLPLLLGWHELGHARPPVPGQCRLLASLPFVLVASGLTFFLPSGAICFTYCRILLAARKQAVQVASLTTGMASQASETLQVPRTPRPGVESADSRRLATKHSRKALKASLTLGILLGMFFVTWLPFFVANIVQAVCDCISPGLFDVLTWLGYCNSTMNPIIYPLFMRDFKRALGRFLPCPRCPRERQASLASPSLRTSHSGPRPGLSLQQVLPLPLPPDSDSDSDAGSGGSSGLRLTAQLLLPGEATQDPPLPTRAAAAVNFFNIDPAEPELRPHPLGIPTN
Protocol: (§2) Compounds of the invention were incubated with 1.5 nM [3H]Lysergic acid diethylamide (LSD) for 120 min at 37° C. […] Receptor proteins were filtered and washed, the filters were then counted to determine [3H]LSD specifically bound. Compounds were screened at 1 μM or lower, using 1% DMSO as vehicle. Biochemical assay results are presented as the percent inhibition of specific binding in Table 4.

[3] = molecular target: T3, human recombinant serotonin (5-Hydroxytryptamine) 5-HT2C receptor (Homo sapiens, UniProt P28335); experiment: Serotonin 5-HT2C radioligand binding assay ([3H]Mesulergine); settings: compound at 0.1 μM; 1 nM [3H]Mesulergine; CHO-K1 cells; read-out: Percent Inhibition of ligand binding, Serotonin (0.1 μM) 5-HT2C
T3 construct: expressed in transfected cells; host or cells: Chinese hamster ovary (CHO-K1) cells
T3 sequence (P28335 33-458): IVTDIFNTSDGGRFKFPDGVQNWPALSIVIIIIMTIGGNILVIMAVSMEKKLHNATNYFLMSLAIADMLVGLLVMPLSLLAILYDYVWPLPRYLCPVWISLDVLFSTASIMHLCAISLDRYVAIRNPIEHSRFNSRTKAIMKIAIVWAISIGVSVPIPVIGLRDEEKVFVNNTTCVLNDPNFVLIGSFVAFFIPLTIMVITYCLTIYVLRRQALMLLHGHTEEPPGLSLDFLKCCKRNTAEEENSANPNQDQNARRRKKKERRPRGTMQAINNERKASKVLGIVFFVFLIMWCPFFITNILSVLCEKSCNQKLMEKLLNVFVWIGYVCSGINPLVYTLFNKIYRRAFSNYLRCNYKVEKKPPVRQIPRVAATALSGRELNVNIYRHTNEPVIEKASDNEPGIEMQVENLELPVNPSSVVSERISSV
Protocol: as §1, with “1” for “0.5”, “[^3H]Mesulergine” for “[^3H]Ketanserin”

[4] = molecular target: human recombinant serotonin (5-Hydroxytryptamine) 5-HT7 receptor (Homo sapiens, UniProt P34969); experiment: Serotonin 5-HT7 radioligand binding assay ([3H]LSD); settings: compound at 0.1 μM; 5.5 nM [3H]LSD; CHO cells; read-out: Percent Inhibition of ligand binding, Serotonin (0.1 μM) 5-HT7
Sequence of human recombinant serotonin (5-Hydroxytryptamine) 5-HT7 receptor (P34969 whole entry): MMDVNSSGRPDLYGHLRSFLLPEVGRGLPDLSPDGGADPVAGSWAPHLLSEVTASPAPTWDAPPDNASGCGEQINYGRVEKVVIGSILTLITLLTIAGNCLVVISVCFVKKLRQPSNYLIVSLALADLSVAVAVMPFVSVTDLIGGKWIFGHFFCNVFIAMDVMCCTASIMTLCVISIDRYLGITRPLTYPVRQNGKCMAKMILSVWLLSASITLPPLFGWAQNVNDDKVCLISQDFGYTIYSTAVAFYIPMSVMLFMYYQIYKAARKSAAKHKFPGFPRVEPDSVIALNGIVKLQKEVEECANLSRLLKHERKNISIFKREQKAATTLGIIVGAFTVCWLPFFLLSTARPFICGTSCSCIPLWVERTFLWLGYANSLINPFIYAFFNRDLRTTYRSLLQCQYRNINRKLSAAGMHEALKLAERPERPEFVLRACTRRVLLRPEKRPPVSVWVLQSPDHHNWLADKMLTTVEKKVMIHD
Protocol: as §2, with “of” for “of the”, “5.5” for “1.5”, “[^3H] Lysergic” for “[3H]Lysergic”, “2 h” for “120 min”, “25°” for “37°”, “[^3H]LSD” for “[3H]LSD”

Row | SMILES | inhibition at 1 µM [1] [%] | inhibition at 0.1 µM [1] [%] | further results
1 | Cc1ccc2c(c1)c1c(n2CC(O)c2ccc(F)cc2)CCN(C)C1 (stereo not drawn) [Compound 1-2, 2-(2,8-dimethyl-3,4-dihydro-1H-pyrido[4,3-b]indol-5(2H)-yl)-1-(4-fluorophenyl)ethanol] | 91 |  | 
2 | CCC(O)(Cn1c2c(c3cc(C)ccc31)CN(C)CC2)c1ccc(F)cc1 (stereo not drawn) [Compound 1-5, 1-(2,8-dimethyl-3,4-dihydro-1H-pyrido[4,3-b]indol-5(2H)-yl)-2-(4-fluorophenyl)butan-2-ol] | 102 |  | 
3 | CN1CCc2c(c3cc(Cl)ccc3n2CC(O)(c2ccc(F)cc2)C2CCC2)C1 (stereo not drawn) [Compound 1-6, 2-(8-chloro-2-methyl-3,4-dihydro-1H-pyrido[4,3-b]indol-5(2H)-yl)-1-cyclobutyl-1-(4-fluorophenyl)ethanol] | 97 |  | 
4 | CN1CCc2c(c3cc(F)ccc3n2CC(C)(O)c2ccncc2)C1 (stereo not drawn) [Compound 1-9, 1-(8-fluoro-2-methyl-3,4-dihydro-1H-pyrido[4,3-b]indol-5(2H)-yl)-2-(pyridin-4-yl)propan-2-ol] | 77 |  | 
5 | CN1CCc2c(c3ccc(Cl)cc3n2CC(C)(O)c2ccncc2)C1 (stereo not drawn) [Compound 1-12, 1-(7-chloro-2-methyl-3,4-dihydro-1H-pyrido[4,3-b]indol-5(2H)-yl)-2-(pyridin-4-yl)propan-2-ol] | 82 |  | 
6 | CN1CCc2c(c3cccc(F)c3n2CC(C)(O)c2ccncc2)C1 (stereo not drawn) [Compound 1-13, 1-(6-fluoro-2-methyl-3,4-dihydro-1H-pyrido[4,3-b]indol-5(2H)-yl)-2-(pyridin-4-yl)propan-2-ol] | 82 |  | 
7 | CN1CCc2c(c3ccccc3n2CC(C)(O)c2ccncc2)C1 (stereo not drawn) [Compound 1-14, 1-(2-methyl-3,4-dihydro-1H-pyrido[4,3-b]indol-5(2H)-yl)-2-(pyridin-4-yl)propan-2-ol] | 74 |  | 
8 | COc1ccc2c(c1)c1c(n2CC(C)(O)c2ccncc2)CCN(C)C1 (stereo not drawn) [Compound 1-16, 1-(8-methoxy-2-methyl-3,4-dihydro-1H-pyrido[4,3-b]indol-5(2H)-yl)-2-(pyridin-4-yl)propan-2-ol] | 50 |  | 
9 | CN1CCc2c(c3c(Cl)c(Cl)ccc3n2CC(C)(O)c2ccncc2)C1 (stereo not drawn) [Compound 1-18, 1-(8,9-dichloro-2-methyl-3,4-dihydro-1H-pyrido[4,3-b]indol-5(2H)-yl)-2-(pyridin-4-yl)propan-2-ol] | 71 |  | 
10 | CC(C)C(O)(Cn1c2c(c3cc(Cl)ccc31)CN(C)CC2)c1ccncc1 (stereo not drawn) [Compound 1-21, 1-(8-chloro-2-methyl-3,4-dihydro-1H-pyrido[4,3-b]indol-5(2H)-yl)-3-methyl-2-(pyridin-4-yl)butan-2-ol] |  | 68 | 
11 | Cc1ccc2c(c1)c1c(n2CC(O)(c2ccncc2)C(C)C)CCN(C)C1 (stereo not drawn) [Compound 1-22, 1-(2,8-dimethyl-3,4-dihydro-1H-pyrido[4,3-b]indol-5(2H)-yl)-3-methyl-2-(pyridin-4-yl)butan-2-ol] |  | 71 | 
12 | CCC(O)(Cn1c2c(c3cc(Cl)ccc31)CN(C)CC2)c1ccncc1 (stereo not drawn) [Compound 1-23, 1-(8-chloro-2-methyl-3,4-dihydro-1H-pyrido[4,3-b]indol-5(2H)-yl)-2-(pyridin-4-yl)butan-2-ol] |  | 62 | 
13 | Cc1ccc2c(c1)c1c(n2CC(C)(O)c2ccncn2)CCN(C)C1 (stereo not drawn) [Compound 1-25, 1-(2,8-dimethyl-3,4-dihydro-1H-pyrido[4,3-b]indol-5(2H)-yl)-2-(pyrimidin-4-yl)propan-2-ol] |  | 17 | 
14 | CN1CCc2c(c3cc(Cl)ccc3n2CC(C)(O)c2ccncn2)C1 (stereo not drawn) [Compound 1-26, 1-(8-chloro-2-methyl-3,4-dihydro-1H-pyrido[4,3-b]indol-5(2H)-yl)-2-(pyrimidin-4-yl)propan-2-ol] |  | 23 | 
15 | CN1CCc2c(c3cc(Cl)ccc3n2CC(C)(O)c2cnccn2)C1 (stereo not drawn) [Compound 1-27, 1-(8-chloro-2-methyl-3,4-dihydro-1H-pyrido[4,3-b]indol-5(2H)-yl)-2-(pyrazin-2-yl)propan-2-ol] |  | 40 | 
16 | Cc1ccc2c(c1)c1c(n2CC(C)(O)c2cnccn2)CCN(C)C1 (stereo not drawn) [Compound 1-28, 1-(2,8-dimethyl-3,4-dihydro-1H-pyrido[4,3-b]indol-5(2H)-yl)-2-(pyrazin-2-yl)propan-2-ol] |  | 30 | 
17 | Cc1ccc2c(c1)c1c(n2CC(C)(O)c2ccncc2)CCN(CC(F)(F)F)C1 (stereo not drawn) [Compound 1-29, 1-(8-methyl-2-(2,2,2-trifluoroethyl)-3,4-dihydro-1H-pyrido[4,3-b]indol-5(2H)-yl)-2-(pyridin-4-yl)propan-2-ol] |  | 11 | inhibition at 0.1 µM [2]: 2%; inhibition at 0.1 µM [3]: 3%; inhibition at 0.1 µM [4]: 2%
18 | Cc1ccc2c(c1)c1c(n2CC(C)(O)c2ccncc2)CCN(C2CC2)C1 (stereo not drawn) [Compound 1-30, 1-(2-cyclopropyl-8-methyl-3,4-dihydro-1H-pyrido[4,3-b]indol-5(2H)-yl)-2-(pyridin-4-yl)propan-2-ol] |  | 14 | inhibition at 0.1 µM [2]: 1%; inhibition at 0.1 µM [3]: 4%; inhibition at 0.1 µM [4]: 6%
19 | COc1cccc2c3c(n(CC(C)(O)c4ccncc4)c12)CCN(C)C3 (stereo not drawn) [Compound 1-31, 1-(6-methoxy-2-methyl-3,4-dihydro-1H-pyrido[4,3-b]indol-5(2H)-yl)-2-(pyridin-4-yl)propan-2-ol] |  | 8 | inhibition at 0.1 µM [2]: -7%; inhibition at 0.1 µM [3]: 5%; inhibition at 0.1 µM [4]: -1%
20 | CC(C)c1ccc2c3c(n(CC(C)(O)c4ccncc4)c2c1)CCN(C)C3 (stereo not drawn) [Compound 1-32, 1-(7-isopropyl-2-methyl-3,4-dihydro-1H-pyrido[4,3-b]indol-5(2H)-yl)-2-(pyridin-4-yl)propan-2-ol] |  | -6 | inhibition at 0.1 µM [2]: -1%; inhibition at 0.1 µM [3]: -6%; inhibition at 0.1 µM [4]: 31%
21 | Cc1ccc2c(c1)c1c(n2CC(C)(O)c2ccncc2)CC(C)N(C)C1 (stereo not drawn) [Compound 1-33, 2-(pyridin-4-yl)-1-(2,3,8-trimethyl-3,4-dihydro-1H-pyrido[4,3-b]indol-5(2H)-yl)propan-2-ol] |  | 43 | inhibition at 0.1 µM [2]: -1%; inhibition at 0.1 µM [3]: 56%; inhibition at 0.1 µM [4]: 40%
22 | Cc1ccc2c(c1)c1c(n2CC(C)(O)c2ccncc2)CCN(C)C1 (stereo not drawn) [Compound 1-52, 1-(1,2,3,4-tetrahydro-2,8-dimethylpyrido[4,3-b]indol-5-yl)-2-(pyridin-4-yl)propan-2-ol] | 88 |  | 
23 | CN1CCc2c(c3cc(Cl)ccc3n2CC(C)(O)c2cccnc2)C1 (stereo not drawn) [Compound 1-54, 1-(8-chloro-1,2,3,4-tetrahydro-2-methylpyrido[4,3-b]indol-5-yl)-2-(pyridin-3-yl)propan-2-ol] | 77 |  | 
24 | COc1ccc(C(C)(O)Cn2c3c(c4cc(Cl)ccc42)CN(C)CC3)cc1F (stereo not drawn) [Compound 1-59, 1-(8-chloro-1,2,3,4-tetrahydro-2-methylpyrido[4,3-b]indol-5-yl)-2-(3-fluoro-4-methoxyphenyl)propan-2-ol] | 96 |  | 
